According to patent publication US10294202B2, “Pyrrolidinones as herbicides” (FMC Corporation, priority 2013, dated 2019):

Assays:
Experiment in all cases: Test C pre-/postemergence herbicide test
ryegrass, Italian = assay type: in vivo, Lolium multiflorum
In short: (§1)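 Visual rating, 0 (no effect) to 100 (complete control), versus untreated controls after 13 to 15 days in the greenhouse. Pre: seeds in loam/sand, sprayed at planting. Post: 1- to 4-leaf plants (2 to 18 cm) in peat-based mix. Compounds in non-phytotoxic solvent plus surfactant.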

morningglory = assay type: in vivo, Ipomoea coccinea
In short: as §1

lambsquarters = assay type: in vivo, Chenopodium album
In short: as §1

ragweed = assay type: in vivo, Ambrosia elatior
In short: as §1

oat, wild = assay type: in vivo, Avena fatua; conditions: Postemergence
From the text: Seeds of plant species selected from blackgrass (Alopecurus myosuroides), ryegrass, Italian (Italian ryegrass, Lolium multiflorum), wheat (winter wheat, Triticum aestivum), galium (catchweed bedstraw, Galium aparine), corn (Zea mays), crabgrass, large (large crabgrass, Digitaria sanguinalis), foxtail, giant (giant foxtail, Setaria faberii), johnsongrass (Sorghum halepense), lambsquarters (Chenopodium album), morningglory (Ipomoea coccinea), nutsedge, yellow (yellow nutsedge, Cyperus esculentus), pigweed (Amaranthus retroflexus), ragweed (common ragweed, Ambrosia elatior), soybean (Glycine max), barnyardgrass (Echinochloa crus-galli), oilseed rape (Brassica napus), waterhemp (common waterhemp, Amaranthus rudis), kochia (Kochia scoparia), oat, wild (wild oat, Avena fatua), surinam grass (Brachiaria decumbens), foxtail, green (green foxtail, Setaria viridis), goosegrass (Eleusine indica), bromegrass, downy (downy bromegrass, Bromus tectorum), nightshade (eastern black nightshade, Solanum ptycanthum), cocklebur (common cocklebur, Xanthium strumarium), cupgrass, woolly (woolly cupgrass, Eriochloa villosa), bermudagrass (Cynodon dactylon), sunflower, (common oilseed sunflower, Helianthus annuus), Russian thistle (Salsola kali) and velvetleaf (Abutilon theophrasti) were planted into a blend of loam soil and sand and treated preemergence with test chemicals formulated in a non-phytotoxic solvent mixture which included a surfactant. At the same time, plants selected from these crop and weed species and also barley (winter barley, Hordeum vulgare), […]), chickweed (common chickweed, Stellaria media), deadnettle (henbit deadnettle, Lamium amplexicaule), and canarygrass (littleseed canarygrass, Phalaris minor) were planted in pots containing Redi-Earth® planting medium (Scotts Company, 14111 Scottslawn Road, Marysville, Ohio 43041) comprising spaghnum peat moss, vermiculite, wetting agent and starter nutrients and treated with postemergence applications of test chemicals formulated in the same manner. Plants ranged in height from 2 to 18 cm (1- to 4-leaf stage) for postemergence treatments. Treated plants and controls were maintained in a greenhouse for 13 to 15 days, after which time all species were compared to controls and visually evaluated. Plant response ratings, summarized in Table C, are based on a scale of 0 to 100 where 0 is no effect and 100 is complete control. A dash (-) response means no test result.

wheat (winter wheat) = assay type: in vivo, Triticum aestivum
In short: as §1

waterhemp = assay type: in vivo, Amaranthus rudis
In short: as §1

corn = assay type: in vivo, Zea mays
In short: as §1

galium = assay type: in vivo, Galium aparine
In short: as §1

soybean = assay type: in vivo, Glycine max
In short: as §1

barnyardgrass = assay type: in vivo, Echinochloa crus-galli
In short: as §1

pigweed = assay type: in vivo, Amaranthus retroflexus
In short: as §1

[1] = Postemergence, 31 g ai/ha, scale 0 to 100 (0 no effect, 100 complete control)
[2] = Postemergence, 62 g ai/ha, scale 0 (no effect) to 100 (complete control)
[3] = Postemergence, 125 g ai/ha, scale 0 to 100 (0 no effect, 100 complete control)
[4] = Postemergence, 250 g ai/ha, scale 0 to 100 (0 no effect, 100 complete control)
[5] = Preemergence, 31 g ai/ha, scale 0 to 100, 0 is no effect and 100 is complete control
[6] = Preemergence, 62 g ai/ha, scale 0 to 100 (0 no effect, 100 complete control)
[7] = Preemergence, 125 g ai/ha, scale 0 to 100 (0 no effect, 100 complete control)

## O=C1NCC(c2cccc(C(F)(F)F)c2)C1C(=O)Nc1ccc(F)cc1F (racemic) [Compound 207]
ryegrass, Italian; [1]
  Plant response rating, Ryegrass, Italian: 0
ryegrass, Italian; [2]
  Plant response rating, Ryegrass, Italian: 0
ryegrass, Italian; [3]
  Plant response rating, Ryegrass, Italian: 0
ryegrass, Italian; [4]
  Plant response rating, Ryegrass, Italian: 0
ryegrass, Italian; [5]
  Ryegrass, Italian plant response rating: 0
ryegrass, Italian; [6]
  Ryegrass, Italian plant response rating: 0
ryegrass, Italian; [7]
  Plant response rating, Ryegrass, Italian: 0
ryegrass, Italian; Preemergence, 250 g ai/ha
  Plant response rating (scale of 0 to 100), Ryegrass, Italian: 0
morningglory; [1]
  Plant response rating, Morningglory: 5
morningglory; [2]
  Plant response rating, Morningglory: 5
morningglory; [3]
  Plant response rating, Morningglory: 5
morningglory; [4]
  Plant response rating, Morningglory: 20
morningglory; [5]
  Morningglory plant response rating: 0
morningglory; [6]
  Morningglory plant response rating: 0
morningglory; [7]
  Plant response rating, Morningglory: 0
morningglory; Preemergence, 250 g ai/ha
  Plant response rating (scale of 0 to 100), Morningglory: 0
lambsquarters; [1]
  Plant response rating, Lambsquarters: 0
lambsquarters; [2]
  Plant response rating, Lambsquarters: 10
lambsquarters; [3]
  Plant response rating, Lambsquarters: 35
lambsquarters; [4]
  Plant response rating, Lambsquarters: 15
lambsquarters; [5]
  Lambsquarters plant response rating: 0
lambsquarters; [6]
  Lambsquarters plant response rating: 0
lambsquarters; [7]
  Plant response rating, Lambsquarters: 60
lambsquarters; Preemergence, 250 g ai/ha
  Plant response rating (scale of 0 to 100), Lambsquarters: 70
ragweed; [1]
  Plant response rating, Ragweed: 0
ragweed; [2]
  Plant response rating, Ragweed: 0
ragweed; [3]
  Plant response rating, Ragweed: 0
ragweed; [4]
  Plant response rating, Ragweed: 15
ragweed; [5]
  Ragweed plant response rating: 0
ragweed; [6]
  Ragweed plant response rating: 0
ragweed; [7]
  Plant response rating, Ragweed: 0
ragweed; Preemergence, 250 g ai/ha
  Plant response rating (scale of 0 to 100), Ragweed: 5
oat, wild; 31 g ai/ha, scale 0 to 100 (0 no effect, 100 complete control)
  Plant response rating, Oat, Wild: 0
oat, wild; 62 g ai/ha, scale 0 (no effect) to 100 (complete control)
  Plant response rating, Oat, Wild: 0
oat, wild; 125 g ai/ha, scale 0 to 100 (0 no effect, 100 complete control)
  Plant response rating, Oat, Wild: 0
oat, wild; 250 g ai/ha, scale 0 to 100 (0 no effect, 100 complete control)
  Plant response rating, Oat, Wild: 0
Wheat (winter wheat); [1]
  Plant response rating, Wheat: 0
Wheat (winter wheat); [2]
  Plant response rating, Wheat: 0
Wheat (winter wheat); [3]
  Plant response rating, Wheat: 0
Wheat (winter wheat); [4]
  Plant response rating, Wheat: 0
Wheat (winter wheat); [5]
  Wheat plant response rating: 0
Wheat (winter wheat); [6]
  Wheat plant response rating: 0
Wheat (winter wheat); [7]
  Plant response rating, Wheat: 5
Wheat (winter wheat); Preemergence, 250 g ai/ha
  Plant response rating (scale of 0 to 100), Wheat: 45
waterhemp; [1]
  Plant response rating, Waterhemp: 0
waterhemp; [2]
  Plant response rating, Waterhemp: 0
waterhemp; [3]
  Plant response rating, Waterhemp: 0
waterhemp; [4]
  Plant response rating, Waterhemp: 10
waterhemp; [5]
  Waterhemp plant response rating: 0
waterhemp; [6]
  Waterhemp plant response rating: 0
waterhemp; [7]
  Plant response rating, Waterhemp: 85
waterhemp; Preemergence, 250 g ai/ha
  Plant response rating (scale of 0 to 100), Waterhemp: 75
corn; [1]
  Plant response rating, Corn: 0
corn; [2]
  Plant response rating, Corn: 0
corn; [3]
  Plant response rating, Corn: 0
corn; [4]
  Plant response rating, Corn: 5
corn; [5]
  Corn plant response rating: 0
corn; [6]
  Corn plant response rating: 0
corn; [7]
  Plant response rating, Corn: 55
corn; Preemergence, 250 g ai/ha
  Plant response rating (scale of 0 to 100), Corn: 30
galium; [1]
  Plant response rating, Galium: 0
galium; [2]
  Plant response rating, Galium: 0
galium; [3]
  Plant response rating, Galium: 0
galium; [4]
  Plant response rating, Galium: 50
galium; [5]
  Galium plant response rating: 0
galium; [6]
  Galium plant response rating: 0
galium; [7]
  Plant response rating, Galium: 85
galium; Preemergence, 250 g ai/ha
  Plant response rating (scale of 0 to 100), Galium: 90
soybean; [1]
  Plant response rating, Soybean: 0
soybean; [2]
  Plant response rating, Soybean: 5
soybean; [3]
  Plant response rating, Soybean: 5
soybean; [4]
  Plant response rating, Soybean: 5
soybean; [5]
  Soybean plant response rating: 0
soybean; [6]
  Soybean plant response rating: 0
soybean; [7]
  Plant response rating, Soybean: 0
soybean; Preemergence, 250 g ai/ha
  Plant response rating (scale of 0 to 100), Soybean: 0
barnyardgrass; [1]
  Plant response rating, Barnyardgrass: 0
barnyardgrass; [2]
  Plant response rating, Barnyardgrass: 10
barnyardgrass; [3]
  Plant response rating, Barnyardgrass: 35
barnyardgrass; [4]
  Plant response rating, Barnyardgrass: 65
barnyardgrass; [5]
  Barnyardgrass plant response rating: 75
barnyardgrass; Preemergence, 62 g ai/ha, scale 0 to 100
  Plant response rating, Barnyardgrass: 85
barnyardgrass; [7]
  Plant response rating, Barnyardgrass: 85
barnyardgrass; Preemergence, 250 g ai/ha
  Plant response rating (scale of 0 to 100; 0 is no effect, 100 is complete control), Barnyardgrass: 95
pigweed; [1]
  Plant response rating, Pigweed: 0
pigweed; [2]
  Plant response rating, Pigweed: 10
pigweed; [3]
  Plant response rating, Pigweed: 10
pigweed; [4]
  Plant response rating, Pigweed: 20
pigweed; [5]
  Pigweed plant response rating: 0
pigweed; [6]
  Pigweed plant response rating: 0
pigweed; [7]
  Plant response rating, Pigweed: 0
pigweed; Preemergence, 250 g ai/ha
  Plant response rating (scale of 0 to 100), Pigweed: 0
